Source: patent US10314799B2 (priority 2015, dated 2019)
Where two headings read alike, the source gives them in different places.

Columns and labels:
PEDV [1] = details: Virus Research (2013), 171(1), 44-53; cited from earlier work
epidemic diarrhea = details: orally administered to diseased piglets, specific dose; cited from earlier work
PEDV [2] = experiment: Prevention of porcine epidemic diarrhea of newborn piglets by orally administering taurine to PEDV-carried pregnant sows; assay type: in vivo, pigs; details: taurine 50 g per sow per day, oral
Excerpt: Prevention of the porcine epidemic diarrhea on the newborn piglets with taurine was implemented by orally administering taurine to pregnant sows.
Drug administration time: 3-30 days before birth of piglets until 15 days after birth of piglets. In consideration of a use-cost, the drug administration time is preferably 5-20 days before birth of piglets until 10 days after birth of piglets, and more preferably 7-14 days before birth of piglets until 5 days after birth of piglets. The effect is subject to an obvious time-effect relationship. The drug administration time for before birth of piglets directly determines a disease incidence of the newborn piglets.
Drug administration dosage: each pregnant sow was administered with 5-500 g of taurine per day, and the administration was in a single dose or in divided doses. The effect is subject to an obvious quantity-effect relationship.
Specific operations: pregnant sows were selected and excrement thereof was tested by RT-PCR to determine the pregnant sows carrying PEDV in vivo. 60 PEDV-carried pregnant sows were divided into two groups randomly. Control group: conventional feeding; experimental group: conventional feeding+50 g per sow per day of taurine.

[3] = system: porcine epidemic diarrhea; experiment: Treatment of porcine epidemic diarrhea of newborn suckling piglets (piglets and lactating sows treated); assay type: in vivo, pigs; details: diseased newborn suckling piglets; 100 g per sow per day, 0.2 g per piglet per day
Description: Treatment of the porcine epidemic diarrhea on newborn piglets with taurine was implemented by orally administering a taurine solution to diseased suckling piglets and administering taurine to lactating sows, that is, simultaneous treatment of both the suckling piglets and the lactating sows.
Drug administration time: the administration by drenching/mixed-feeding was carried out on the day when the disease occurred in the suckling piglets and a non-interrupted administration lasted for 3-10 days. Lactating sows: non-interrupted oral administration lasted for 5-10 days.
Drug administration dosage: the administration by drenching and/or mixed-feeding was carried out on the day when the disease occurred in the suckling piglets. The administration by drenching: 2% taurine solution at a dosage of 1-5 mL per time and it was taken 2-6 times per day. The administration by mixed-feeding: 1-20 g/L of taurine solution was drunk freely. Lactating sows: each sow was administered with 5-500 g of taurine per day and the administration was in a single dose or in divided doses.
Specific operations: 40 litters of diseased newborn suckling piglets and sows thereof were selected and randomly divided into two groups equivalently. Control group: conventional supportive therapy (fluid infusion+antibiotic therapy+atropine sulfate); experimental group: treatment with taurine.

[4] = system: porcine epidemic diarrhea; experiment: Prevention of porcine epidemic diarrhea of weaned piglets, care pigs and finishing pigs; assay type: in vivo; details: 200 mg per kilogram of body weight per day
Description: Prevention of the porcine epidemic diarrhea on the weaned piglets, the care pigs and the finishing pigs with taurine was implemented by orally administering taurine to a swine herd, wherein the administration may be carried out by means of feeding in water or mixed feeding.
Drug administration time: a preventative administration was carried out during an epidemic period of the disease, or in autumn, winter and spring when the temperature was low and changed greatly, that is, in the season when the porcine epidemic diarrhea frequently occurs. Generally, the administration can be carried out for a long-term. In consideration of the use-cost, the drug administration time is preferably 3-30 days, and more preferably, 7-14 days. The effect is subject to an obvious time-effect relationship.
Drug administration dosage: 0.005-2% of taurine was added in daily-drinking water for the pigs to drink freely; or 0.01-5% of taurine was added into the feed, which is equivalent to a dosage of 50-10000 mg per kilogram of body weight per day of taurine, and the administration was in a single dose or in divided doses. The effect is subject to an obvious quantity-effect relationship.
Specific operations: 120 healthy weaned piglets, 120 healthy care pigs and 120 healthy finishing pigs were selected and randomly divided into two groups equivalently. Control group: conventional feeding; experimental group: conventional feeding+taurine (the dosage of taurine was 200 mg per kilogram of body weight per day).

[5] = system: porcine epidemic diarrhea; experiment: Treatment of porcine epidemic diarrhea of weaned piglets, care pigs and finishing pigs; assay type: in vivo; details: 300 mg per kilogram of body weight per day
Description: Treatment of the porcine epidemic diarrhea on the weaned piglets, the care pigs and the finishing pigs with taurine was implemented by orally administering taurine to the pigs, wherein the administration may be carried out by means of feeding in water or mixed feeding.
Drug administration time: the administration was carried out from the day of occurrence of the disease, and in consideration of the use-cost, the drug administration time is preferably 3-30 days, and more preferably 7-14 days. The effect is subject to an obvious time-effect relationship.
Drug administration dosage: 0.1-2% of taurine was added in the daily-drinking water for the pigs to drink freely; or 0.2-5% of taurine was added into the feed, which is equivalent to a dosage of 100-10000 mg per kilogram of body weight per day of taurine, and the administration was in a single dose or in divided doses. The effect is subject to an obvious quantity-effect relationship.
Specific operations: 60 diseased weaned piglets, 60 diseased care pigs and 60 diseased finishing pigs were selected, and were randomly divided into two groups equivalently. Control group: conventional supportive therapy (fluid infusion+antibiotic therapy+atropine sulfate); experimental group: treatment with taurine (the dosage of taurine was 300 mg per kilogram of body weight per day).

[6] = system: porcine transmissible gastroenteritis; assay type: in vivo, pigs
rotavirus diarrhea = experiment: Treatment of rotavirus diarrhea; assay type: in vivo, pigs
[7] = system: pseudorabies viral diarrhea; assay type: in vivo, pigs
[8] = care pigs, dosage as in Embodiment 4
[9] = finishing pigs, dosage as in Embodiment 4
[10] = newborn piglets, dosage as in Embodiment 2
[11] = weaned piglets, dosage as in Embodiment 4

For `NC(=O)c1ncn([C@@H]2O[C@H](CO)[C@@H](O)[C@H]2O)n1` [Ribavirin], the “inhibition of replication of PEDV” value (PEDV [1]) is listed as “capable of inhibiting replication of PEDV”.
For povidone iodine, the “improvement of survival rate” value (epidemic diarrhea) is listed as 5-10%.
For `NCCS(=O)(=O)O` [taurine, β-aminoethanesulfonic acid], the “Death rate of the newborn piglets (%)” value (PEDV [2]) was 75.1%, the “Disease incidence of the new born piglets (%)” value (PEDV [2]) was 85% and the “10-day-aged survival rate (%)” value [3] was 22.5%. For the same compound, the Prognosis [3] was “Good”, the Weaned survival rate [3] was 20.7 and the “Disease incidence (%)” value ([4]; care pigs) was 3.3%. The Prognosis ([4]; care pigs) was “Excellent”, the “Survival rate (%)” value ([4]; care pigs) was 96.6% and the “Disease incidence (%)” value ([4]; finishing pigs) was 0%. For the same compound, the Prognosis ([4]; finishing pigs) was “Excellent”, the “Survival rate (%)” value ([4]; finishing pigs) was 98.3% and the “Disease incidence (%)” value ([4]; weaned piglets) was 6.6%. For the same compound, the Prognosis ([4]; weaned piglets) was “Excellent”, the “Survival rate (%)” value ([4]; weaned piglets) was 96.6% and the Prognosis ([5]; diseased care pigs) was “Good”. The “Survival rate (%)” value ([5]; diseased care pigs) was 93.3%, the Prognosis ([5]; diseased finishing pigs) was “Good” and the “Survival rate (%)” value ([5]; diseased finishing pigs) was 100%. For the same compound, the Prognosis ([5]; diseased weaned piglets) was “Good”, the “Survival rate (%)” value ([5]; diseased weaned piglets) was 90.0% and the Prognosis [6, 8] was “Good”. The “Survival rate (%)” value [6, 8] was 93.3%, the Prognosis [6, 9] was “Good” and the “Survival rate (%)” value [6, 9] was 96.6%. The Prognosis [6, 10] was “Good”, the “Survival rate (%)” value [6, 10] was 16.6% and the Prognosis [6, 11] was “Good”. For the same compound, the “Survival rate (%)” value [6, 11] was 90%, the Prognosis (rotavirus diarrhea; [8]) was “Good” and the “Survival rate (%)” value (rotavirus diarrhea; [8]) was 96.6%. The Prognosis (rotavirus diarrhea; [10]) was “Good”, the “Survival rate (%)” value (rotavirus diarrhea; [10]) was 93.6% and the Prognosis (rotavirus diarrhea; [11]) was “Good”. The “Survival rate (%)” value (rotavirus diarrhea; [11]) was 96.6%, the Prognosis [7, 8] was “General” and the “Survival rate (%)” value [7, 8] was 43.3%. The “Survival rate (%)” value [7, 10] was 0% and the “treatment effect on the pseudorabies viral diarrhea” value ([7]; summary of Table 5) was “no treatment effect”.
